System: mouse neuroblastoma N2a cells
Test: Rescue of Aβ42-induced neurotoxicity in N2a cells
Format: cell-based
Settings: N2a cells treated with Aβ42 and compound

For `COc1cc(/C=C/C(=O)CC(=O)/C=C/c2ccc(O)c(OC)c2)ccc1O` [curcumin], the “effect on Aβ42-induced neurotoxicity” value was “dramatically increased the Aβ-induced cytotoxicity”.
